Assay results taken from US10961233B2 (LIFEARC, priority 2016, dated 2021).

Key:
[1] = tested on: wild type LM2 and CRISPR edited LM2; assay: 2D cell proliferation assay, wild type LM2 versus PAICS CRISPR edited LM2; format: cell-based, human; conditions: LM2 cells, PAICS CRISPR edited vs wild type
Experimental: Cas9 nuclease-mediated gene editing (Sander and Joung, 2014) was performed using a CRISPR RNA guide sequence ([…], PAM: AGG) targeting exon 3 in the human PAICS gene (accession number: NM_006452).
Stable cell clones were isolated and gene disruption confirmed by DNA sequencing and the absence of PAICS cellular protein expression confirmed by Western blotting.
A small set of compounds were tested against wild type LM2 and CRISPR edited LM2 in the 2D cell proliferation assay to establish to what extent the cellular potency was driven by PAICS mediated effects. The data is shown in Table 2: compounds tested had no effect on CRISPR edited cells, confirming the on-targets effect as being PAICS mediated.

[2] = tested on: MDA-MB-231 Dlux cells; assay: MDA-MB-231-Dlux xenograft model; format: in vivo; conditions: oral 25 mg/kg twice daily, 2 weeks, mammary fat pad implant, MF-1 nude mice
Experimental: Evaluation of Compound 69 in MDA-MB-231-Dlux Xenograft Model
Mice were implanted with MDA-MB-231 Dlux cells in the mammary fat pad. Mice were treated with test agent, (Compound 69), standard of care control agent, docetaxel, or vehicle control, once tumours reached a mean volume of ˜100-200 mm^3. Tumours were measured every 2-3 days using electronic calipers and tumour volume estimated using the formula 0.5 (L×W^2). Treatment continued for 2 weeks. Mice were observed and body weight measured daily
MF-1 (HsdOla:MF1-Foxn1^nu)
MDA-MB-231 Dlux (Bioluminescent MDA-MD-231 variant)
Implantation Site: Mammary fat pad (1:1 matrgel/PBS)
Compound 69 (Oral 25 mg/kg twice daily)
Docetaxel (IV 5 mg/kg twice weekly)

[3] = tested on: LM2 and MDA-MB-231 breast cancer cell lines; assay: PAICS 2D cell proliferation assay (CellTiter-Glo viability, 72 h); format: cell-based; conditions: Homo sapiens; 72 h incubation; cell line not given
[4] = target: WT full length PAICS (Homo sapiens (Human), UniProt P22234); assay: Biochemical assay to measure PAICS activity (Transcreener ADP2 FI); conditions: SAICAR synthetase reaction, ADP detection, 30 min pre-incubation
Sequence of WT full length PAICS (P22234 whole entry): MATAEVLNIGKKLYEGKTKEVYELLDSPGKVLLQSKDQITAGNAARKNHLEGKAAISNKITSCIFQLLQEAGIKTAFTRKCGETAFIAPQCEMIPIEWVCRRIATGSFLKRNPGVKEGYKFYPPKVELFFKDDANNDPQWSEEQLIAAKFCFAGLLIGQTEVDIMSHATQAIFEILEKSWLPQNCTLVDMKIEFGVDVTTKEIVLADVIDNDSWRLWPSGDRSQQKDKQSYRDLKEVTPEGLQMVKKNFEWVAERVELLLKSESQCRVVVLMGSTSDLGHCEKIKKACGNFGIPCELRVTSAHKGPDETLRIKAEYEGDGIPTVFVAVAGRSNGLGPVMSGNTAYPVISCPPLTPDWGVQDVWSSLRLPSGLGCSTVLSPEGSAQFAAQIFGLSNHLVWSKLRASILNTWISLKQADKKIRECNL

EC50 [3]: < 100 nM
IC50 [4]: < 10 nM
SMILES: CN(C)CCCS(=O)(=O)N1CCN(c2ccc(Br)c(NC(=O)c3coc(N)n3)c2)CC1 [Example 69, 2-Amino-N-(2-bromo-5-(4-(3-(dimethylamino)propylsulfonyl)piperazin-1-yl)phenyl)oxazole-4-carboxamide]
Potency shift: CRISPR Cell EC50/WT Cell EC50 [1]: >500
growth of primary tumour [2]: statistically significant reduction in growth of primary tumour
